In ChEMBL document CHEMBL1641439, “The effect of 5-substitution on the electrochemical behavior and antitubercular activity of PA-824” (2011):
≈ marks a conversion by molar mass, not a printed value.

Tests used:
[1] = test system: Mycobacterium tuberculosis; test: Antituberculosis activity against Mycobacterium tuberculosis H37Rv assessed as minimum anaerobicidal cancentration after 3 weeks; type: functional
[2] = test system: Mycobacterium tuberculosis; test: Antituberculosis activity against Mycobacterium tuberculosis H37Rv after 2 weeks; type: functional; conditions: 336 h

SMILES | MAC [1] [µM] | MIC [2] [µM]
Nc1c([N+](=O)[O-])nc2n1C[C@H](OCc1ccc(OC(F)(F)F)cc1)CO2 | >100 | > 100
O=[N+]([O-])c1nc2n(c1Br)C[C@H](OCc1ccc(OC(F)(F)F)cc1)CO2 | 32.5 | 25 (≈ 11 µg/mL)
N#Cc1c([N+](=O)[O-])nc2n1C[C@H](OCc1ccc(OC(F)(F)F)cc1)CO2 |  | > 100
O=[N+]([O-])c1nc2n(c1Cl)C[C@H](OCc1ccc(OC(F)(F)F)cc1)CO2 |  | 25 (≈ 9.84 µg/mL)
O=[N+]([O-])c1cn2c(n1)OC[C@@H](OCc1ccc(OC(F)(F)F)cc1)C2 [PRETOMANID] | 8 | 0.8 (≈ 0.287 µg/mL)
